In patent US9073892B2, “Indazolyl triazol derivatives” (Merck Serono S.A., priority 2010, dated 2015) one finds IC50 data, which are given here for 37 compounds.

pIC50: −log10 of the molar value.

For experiment [1], the system named is IL1β-induced IL8 release in THP1 cells. Nature of the experiment: IRAK IL8 secretion functional assay. In kind it is cell-based. The note with it: Homo sapiens; THP-1 cells, IL1β 100 ng/ml overnight, IL8 by HTRF; read-out: IC50, Secretion THP-1/IL-β induced IL8 release. From the text: IRAK IL8 Secretion Functional Assay:
THP1 cells are human monocytes derived from acute monocytic leukemia. IL1β receptor expressed on the surface membrane of THP1 cells induced IL8 release. IRAKs are kinase signaling downstream of TLRs and TNF, IL-18, IL-33 and IL-1 receptors.
In cells, IRAK4 is upstream of IRAK1.
The Human IL8 Kit, provided by CysBio International based in Bagnols/Cèze FR, allows for the quantitative determination of IL-8 in cell-culture supernatants.
Anti-cytokine IL8 antibodies are respectively labeled with europium Cryptate and XL665. Upon their binding to IL-8 molecules, the two antibodies come into close proximity, allowing FRET (Fluorescence Resonance Energy Transfer) to occur. This FRET increases proportionally to IL-8 concentrations and be converted in IL8 pg amounts.
THP-1 cells are seeded on Day 1 in 384 well plate with RPMI 1640 at a density of 30 000 cells/well. Compounds 4×/2% DMSO (range of concentrations from 20 μM to 1 nM) and IL1β 4× at 100 ng/ml final are added to cells overnight at 37° C., 5% CO2. Measurement of IL-8 secretion is done by mixing on Day2 10 μl of supernatant with 10 μl of a mix solution of europium Cryptate and XL665 (v:v) as described by supplier.
HTRF (homogeneous time resolved fluorescence) signal is measured after 3 hours incubation time at 30° C. with a BMG Pherastar reader or equivalent.
For orientation: TR-FRET usually uses a lanthanide donor and a delayed reading to cut background.

A further experiment has as its system T1, IRAK1/4 human.
T1 construct: fused on or other part: His tag and TEV cleavage site at the N-terminus
Nature of the experiment: IRAK1/4 phosphorylation IC50 (enzymatic assay, table 2). Type of experiment: biochemical. The conditions noted are these: human IRAK1/4 phosphorylation. The method, boiled down: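 Human IRAK-1 or IRAK-4, each carrying a His-TEV tag, was incubated with ATP and compounds in DMSO ranging from 20 µM to 1 nM in 384-well plates, and IRAK-4 reactions also contained STK1-biotin peptide. Reactions ran in 50 mM Hepes pH7.0 with MgCl2, DTT, EGTA and BSA for 2 or 3 hours, with 2% DMSO controls. Inhibition is given as IC50.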

Regarding `CCN1CCC[C@@H]1CNC(=O)c1ccc(-n2cc(-c3n[nH]c4ccc(C)cc34)nn2)cc1` [Example 3, N-{[(2R)-1-ethylpyrrolidin-2-yl]methyl}-4-[4-(5-methyl-1H-indazol-3-yl)-1H-1,2,3-triazol-1-yl]benzamide], the pIC50 (in experiment [1]; in the experiment with IRAK1/4 human) was 6.00 to 7.00 in each case.

`CCN1CCC[C@H]1CNC(=O)c1ccc(-n2cc(-c3n[nH]c4ccc(C)cc34)nn2)cc1` [Example 4, N-{[(2S)-1-ethylpyrrolidin-2-yl]methyl}-4-[4-(5-methyl-1H-indazol-3-yl)-1H-1,2,3-triazol-1-yl]benzamide]: the pIC50 (in experiment [1]; with IRAK1/4 human) was 6.00 to 7.00 each time.

As for `Cc1ccc2[nH]nc(-c3cn(-c4ccc(CN5CCCC5)cc4)nn3)c2c1` [Example 6, 5-methyl-3-{1-[4-(pyrrolidin-1-ylmethyl)phenyl]-1H-1,2,3-triazol-4-yl}-1H-indazole], the pIC50 (in experiment [1]; in the experiment on IRAK1/4 human) was 6.00 to 7.00 in each case.

For `CNCc1ccc(-n2cc(-c3n[nH]c4ccc(C)cc34)nn2)cc1` [Example 8, N-methyl-1-{4-[4-(5-methyl-1H-indazol-3-yl)-1H-1,2,3-triazol-1-yl]phenyl}methanamine], the pIC50 (in experiment [1]; with IRAK1/4 human) was 6.00 to 7.00 throughout.

Take `Cc1ccc2[nH]nc(-c3cn(-c4ccc(CN5CCN(C)CC5)cc4)nn3)c2c1` [Example 9, 5-methyl-3-(1-{4-[(4-methylpiperazin-1-yl)methyl]phenyl}-1H-1,2,3-triazol-4-yl)-1H-indazole]: the pIC50 in experiment [1] was 6.00 to 7.00; in the experiment with IRAK1/4 human, 5.30 to 6.00.

With `Cc1ccc2[nH]nc(-c3cn(-c4ccc(CN(C)C)cc4)nn3)c2c1` [Example 10, N,N-dimethyl-1-{4-[4-(5-methyl-1H-indazol-3-yl)-1H-1,2,3-triazol-1-yl]phenyl}methanamine], the pIC50 (in experiment [1]; with IRAK1/4 human) was 6.00 to 7.00 each time.

On to `Cc1ccc2[nH]nc(-c3cn(-c4ccc(CN5CCNCC5)cc4)nn3)c2c1` [Example 11, 5-methyl-3-{1-[4-(piperazin-1-ylmethyl)phenyl]-1H-1,2,3-triazol-4-yl}-1H-indazole], for which the pIC50 (in experiment [1]; in the experiment on IRAK1/4 human) was 6.00 to 7.00 in each case.

`O=C(NCc1ccc(-n2cc(-c3n[nH]c4ccccc34)nn2)cc1)c1ccncc1` [Example 15, N-{4-[4(1H-indazol-3-yl]-1H-1,2,3-triazol-1-yl)benzyl}isonicotinamide]: the values for the pIC50 (in experiment [1]; with IRAK1/4 human) were 6.00 to 7.00 and 5.30 to 6.00, respectively.

As to `O=C(Cc1ccc(-n2cc(-c3n[nH]c4ccccc34)nn2)cc1)N1CCCC1` [Example 19, 3-{1-[4-(2-oxo-2-pyrrolidin-1-ylethyl)phenyl]-1H-1,2,3-triazol-4-yl}-1H-indazole], the pIC50 (in experiment [1]; in the experiment with IRAK1/4 human) was 6.00 to 7.00 each time.

For the compound `O=C(CCc1ccc(-n2cc(-c3n[nH]c4ccccc34)nn2)cc1)N1CCOCC1` [Example 22, 3-{1-[4-(3-morpholin-4-yl-3-oxopropyl)phenyl]-1H-1,2,3-triazol-4-yl}-1H-indazole], the pIC50 in experiment [1] was 6.00 to 7.00; with IRAK1/4 human, 5.30 to 6.00.

For the compound `O=C(CCc1ccc(-n2cc(-c3n[nH]c4ccccc34)nn2)cc1)N1CCCC1` [Example 23, 3-{1-[4-(3-oxo-3-pyrrolidin-1-ylpropyl)phenyl]-1H-1,2,3-triazol-4-yl}-1H-indazole], the pIC50 was 6.00 to 7.00 in experiment [1] and 5.30 to 6.00 in the experiment on IRAK1/4 human.

Regarding `COc1cc(-n2cc(-c3n[nH]c4ccccc34)nn2)ccc1C(=O)N(C)C` [Example 25, 4-[4-(1H-indazol-3-yl)-1H-1,2,3-triazol-1-yl]-2-methoxy-N,N-dimethylbenzamide], the pIC50 (in experiment [1]; with IRAK1/4 human) was 6.00 to 7.00 throughout.

Compound `CN1[C@@H]2CCC[C@H]1C[C@H](c1ccc(-n3cc(-c4n[nH]c5cc(F)ccc45)nn3)cc1)C2` [Example 272] gave a pIC50 in the experiment on IRAK1/4 human of more than 7.00.

On to `CN1[C@@H]2CCC[C@H]1C[C@H](c1ccc(-n3cc(-c4n[nH]c5ccccc45)nn3)cc1)C2` [Example 273], for which, in the experiment on IRAK1/4 human, the pIC50 was more than 7.00.

`Cc1ccc2c(-c3cn(-c4ccc([C@@H]5C[C@H]6CCC[C@@H](C5)N6C)cc4)nn3)n[nH]c2c1` [Example 274] had a pIC50 in the experiment on IRAK1/4 human of more than 7.00.

In the case of `CC1(C)CNCCC1c1ccc(-n2cc(-c3n[nH]c4cc(F)ccc34)nn2)cc1` (stereo not shown) [Example 275], the pIC50 with IRAK1/4 human was more than 7.00.

With `O=C1C[C@@H](OCc2ccc3[nH]nc(-c4cn(-c5ccc(C(=O)N6CCOCC6)cc5)nn4)c3c2)CO1` [Example 276], the pIC50 in the experiment on IRAK1/4 human is 6.00 to 7.00.

In turn, `CC1(C)CNCCC1c1ccc(-n2cc(-c3n[nH]c4ccccc34)nn2)cc1` (stereo not shown) [Example 277] gave a pIC50 in the experiment on IRAK1/4 human of more than 7.00.

`CN1C2CCC1CC(n1cc(-n3cc(-c4n[nH]c5ccc(-c6cnn(C)c6)cc45)nn3)cn1)C2` (stereo not shown) [Example 278] had a pIC50 in the experiment on IRAK1/4 human of more than 7.00.

In the experiment on IRAK1/4 human, `Cc1ccc2c(-c3cn(-c4ccc(CN5CCOC(C)(C)C5)cc4)nn3)n[nH]c2c1` [Example 279] had a pIC50 of 6.00 to 7.00.

Compound `OC(CN1[C@@H]2CC[C@H]1C[C@@H](c1ccc(-n3cc(-c4n[nH]c5ccccc45)nn3)cc1)C2)C(F)(F)F` (stereo partly shown) [Example 280] showed a pIC50 in the experiment on IRAK1/4 human of 6.00 to 7.00.

As to `OC(CN1[C@@H]2CC[C@H]1C[C@H](c1ccc(-n3cc(-c4n[nH]c5ccccc45)nn3)cc1)C2)C(F)(F)F` (stereo partly shown) [Example 281], in the experiment on IRAK1/4 human, the pIC50 is 6.00 to 7.00.

With `Fc1ccc2c(-c3cn(-c4ccc(CN5CC6CCC(C5)O6)cc4)nn3)n[nH]c2c1` [Example 282], the pIC50 with IRAK1/4 human was 5.30 to 6.00.

For `CC1(C)CN(Cc2ccc(-n3cc(-c4n[nH]c5cc(F)ccc45)nn3)cc2)CCO1` [Example 283], the pIC50 in the experiment with IRAK1/4 human is 5.30 to 6.00.

The compound `c1ccc2c(-c3cn(-c4ccc(CN5CC6CCC(C5)O6)cc4)nn3)n[nH]c2c1` [Example 284] showed a pIC50 with IRAK1/4 human of 5.30 to 6.00.

With `Fc1ccc2c(-c3cn(-c4ccc(CN5CCCCC56COC6)cc4)nn3)n[nH]c2c1` [Example 285], in the experiment with IRAK1/4 human, the pIC50 was 6.00 to 7.00.

In turn, `Cc1ccc2c(-c3cn(-c4ccc(CN5CCCCC56COC6)cc4)nn3)n[nH]c2c1` [Example 287] gave a pIC50 in the experiment on IRAK1/4 human of 6.00 to 7.00.

Consider `Cc1nn(C)cc1-c1ccc(-n2cc(-c3n[nH]c4ccccc34)nn2)cc1` [Example 289], for which the pIC50 with IRAK1/4 human was 6.00 to 7.00.

With `Cc1cnccc1-c1ccc(-n2cc(-c3n[nH]c4ccccc34)nn2)cc1` [Example 290], in the experiment on IRAK1/4 human, the pIC50 is 6.00 to 7.00.

Turning to `CC(=O)Nc1ccc(-c2ccc(-n3cc(-c4n[nH]c5ccccc45)nn3)cc2)cn1` [Example 291], the pIC50 in the experiment on IRAK1/4 human is 6.00 to 7.00.

For `O=C(c1ccc(-n2cc(-c3n[nH]c4ccc(CN5CC(O)C5)cc34)nn2)cc1)N1CCOCC1` [Example 292], in the experiment on IRAK1/4 human, the pIC50 is 6.00 to 7.00.

Compound `Cc1ccc2c(-c3cn(-c4ccc(CN5CC6CCC(C5)O6)cc4)nn3)n[nH]c2c1` [Example 293] had a pIC50 in the experiment on IRAK1/4 human of 6.00 to 7.00.

As for `c1ccc2c(-c3cn(-c4ccc(-c5cnn(C6CCNCC6)c5)cc4)nn3)n[nH]c2c1` [Example 294], the pIC50 in the experiment on IRAK1/4 human is 6.00 to 7.00.

`O=C(c1ccc(-n2cc(-c3n[nH]c4ccc(CNCc5cccc(O)c5)cc34)nn2)cc1)N1CCOCC1` [Example 295] gave a pIC50 with IRAK1/4 human of 6.00 to 7.00.

On to `O=C(c1ccc(-n2cc(-c3n[nH]c4cc(C(F)(F)F)ccc34)nn2)cc1)N1CCOCC1` [Example 296], for which, in the experiment on IRAK1/4 human, the pIC50 was 6.00 to 7.00.

In the experiment on IRAK1/4 human, `FC(F)(F)c1ccc2c(-c3cn(-c4ccc(CN5CCOCC5)cc4)nn3)n[nH]c2c1` [Example 297] had a pIC50 of 5.30 to 6.00.

For the compound `FC(F)(F)c1ccc2c(-c3cn(-c4ccc(C5CCNCC5)cc4)nn3)n[nH]c2c1` [Example 299], the pIC50 with IRAK1/4 human was 6.00 to 7.00.
